The source of these data is ChEMBL document CHEMBL1201862, “PubChem BioAssay data set” (2004).

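The compound was tested at five concentrations on cells cultured in 96-well plates, with a 48-hour exposure period. At the GI50, growth is halved.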 Calls of active or inactive are those of the source. No stated cut-off is given here; in the data, active = GI50 up to about 1.1 µM and inactive = higher.

Common to all, as to experiment: NCI tumour cell line growth inhibition, 48 h
In assay [1] the test system is RXF 393.
The subject of assay [2] is HL-60.
Assay [3] deals with OVCAR-5.
For assay [4], the system named is U-251.
Assay [5] concerns LOX IMVI.
Assay [6] deals with EKVX.
Assay [7] deals with SNB-75.
Assay [8] has as its system Hs-578T.
The test system of assay [9] is NCI-H23.
For assay [10], the system named is MCF7.
Assay [11] relates to MDA-MB-435.
Assay [12] has as its system TK-10.
Assay [13] concerns SK-MEL-2.
For assay [14], the system named is NCI-H460.
Assay [15] relates to MOLT-4.
For assay [16], the system named is A549.
For assay [17], the system named is M14.
In assay [18] the test system is SF-295.
Assay [19] deals with UO-31.
Assay [20] concerns KM12.

As for `CCCCCC(=O)NC(=S)Nc1nnn[nH]1`, the GI50 in assay [1], in assay [2], in assay [3], in assay [4], in assay [5] and in assay [6] was > 100 µM (inactive) in each case. Besides, the GI50 in assay [7], in [8], in assay [9], in [10], in assay [11] and in assay [12] was > 100 µM (inactive) throughout. The GI50 in [13], in [14], in assay [15], in [16], in assay [17] and in assay [18] was > 100 µM (inactive) each time. Further, the GI50 in [19] and in [20] was > 100 µM (inactive) throughout.

In the case of `CS(=O)(=O)c1cc(=O)c2ccccc2s1`, the GI50 was 3.91 µM (inactive) in assay [1]; 1.84 µM (inactive) in [2]; 11.8 µM (inactive) in [3]; 19.7 µM (inactive) in [4]; 6.68 µM (inactive) in assay [5]; 9.06 µM (inactive) in assay [6]. Also, the GI50 in assay [7] is 16 µM (inactive); in assay [8], 26.6 µM (inactive); in assay [9], 9.06 µM (inactive); in assay [10] it was 2.72 µM (inactive); in assay [11] it was 11 µM (inactive); in assay [12], 7.28 µM (inactive). The GI50 is 15.3 µM (inactive) in assay [13]; 18.1 µM (inactive) in assay [14]; 1.72 µM (inactive) in assay [15]; 18.4 µM (inactive) in [16]; 1.85 µM (inactive) in [17]; 13.7 µM (inactive) in assay [18]. Also, the GI50 in assay [19] is 15.7 µM (inactive); in assay [20] it was 15.5 µM (inactive).

For the compound `O=c1[nH]/c(=C/c2ccc(OCc3ccccc3)cn2)c(=O)[nH]/c1=C/c1ccc(O)cc1`, the GI50 is 0.865 µM (active) in assay [1]; 0.298 µM (active) in [2]; 8.32 µM (inactive) in [3]; 0.719 µM (active) in assay [4]; 0.507 µM (active) in assay [5]; 2.71 µM (inactive) in [6]. Also, the GI50 was 0.762 µM (active) in assay [7]; 1.67 µM (inactive) in [8]; 1.16 µM (inactive) in [9]; 1 µM (active) in [10]; 0.109 µM (active) in [11]; 0.931 µM (active) in assay [12]. Moreover, the GI50 in assay [13] is 1.33 µM (inactive); in assay [14] it was 1.41 µM (inactive); in assay [15], 0.301 µM (active); in assay [16], 3.05 µM (inactive); in [17] it was 0.94 µM (active); in assay [18], 8.85 µM (inactive). Also, the GI50 in assay [19] was 0.622 µM (active); in [20], 1.23 µM (inactive).

As to `CC(C)N1CN(c2ccccc2)C2(CCN(CCCC(=O)c3ccc(F)cc3)CC2)C1=O`, the GI50 is 28.4 µM (inactive) in assay [1]; 19.1 µM (inactive) in assay [2]; 5.42 µM (inactive) in assay [3]; 26.7 µM (inactive) in assay [4]; 7.1 µM (inactive) in assay [5]; 12.7 µM (inactive) in assay [6]. The GI50 in assay [7] was 36.1 µM (inactive); in [8], 16.1 µM (inactive); in assay [9], 6.7 µM (inactive); in assay [10], 3.88 µM (inactive); in [11] it was 11.1 µM (inactive); in [12] it was 12.1 µM (inactive). In addition, the GI50 in assay [13] is 14 µM (inactive); in assay [14], 21.1 µM (inactive); in [15], 5.92 µM (inactive); in assay [16] it was 4.68 µM (inactive); in assay [17], 15.3 µM (inactive); in assay [18], 10.8 µM (inactive). The results for the GI50 in assay [19] and in assay [20] were 19.4 µM (inactive) and 22 µM (inactive), respectively.

As for `CCOC(=O)c1cccc(/N=N/Nc2cccc(C(=O)OCC)c2)c1`, the GI50 in assay [1] was 19.1 µM (inactive); in [2], > 100 µM (inactive); in [3] it was 78.7 µM (inactive); in [4], 20.1 µM (inactive); in assay [5], > 100 µM (inactive); in [6], 57.8 µM (inactive). The GI50 is 14.6 µM (inactive) in [7]; 30.8 µM (inactive) in assay [8]; 43.2 µM (inactive) in [9]; 61.7 µM (inactive) in [10]; 16.4 µM (inactive) in assay [11]; 27.5 µM (inactive) in assay [12]. Moreover, the GI50 in assay [13] was 34.2 µM (inactive); in assay [14] it was 64 µM (inactive); in assay [15], > 100 µM (inactive); in assay [16], 74.5 µM (inactive); in assay [17], > 100 µM (inactive); in [18], 15.6 µM (inactive). Also, the GI50 was 17.7 µM (inactive) in assay [19] and > 100 µM (inactive) in assay [20].

On to `O=C(O)Cc1cccc2c(=O)c3cccc([N+](=O)[O-])c3oc12`, for which the GI50 in assay [1], in [2], in assay [3], in assay [4], in assay [5] and in [6] was > 100 µM (inactive) in each case. In addition, the GI50 in [7], in assay [8], in [9], in [10], in assay [11] and in assay [12] was > 100 µM (inactive) throughout. Moreover, the GI50 in [13], in assay [14], in assay [15], in [16], in [17] and in [18] was > 100 µM (inactive) each time. Besides, the GI50 in [19] and in assay [20] was > 100 µM (inactive) in each case.

On to `CC(C)(C)OC(=O)NC(CSCc1ccc(C(=O)c2ccccc2)cc1)C(=O)N1CCN(CCCCN2c3ccccc3Sc3cc(N=[N+]=[N-])ccc32)CC1` (stereo not given), for which the GI50 in assay [1], in assay [2], in [3], in [4], in assay [5] and in assay [6] was > 100 µM (inactive) each time. Also, the GI50 was 58.7 µM (inactive) in [7]; > 100 µM (inactive) in [8]; > 100 µM (inactive) in [9]; > 100 µM (inactive) in assay [10]; > 100 µM (inactive) in assay [11]; > 100 µM (inactive) in [12]. The GI50 in assay [13], in assay [14], in assay [15], in [16], in assay [17] and in assay [18] was > 100 µM (inactive) each time. Besides, the GI50 in [19] and in assay [20] was > 100 µM (inactive) in each case.
